System: SEM cells
Experiment: cell viability relative to DMSO control; higher = less cytotoxic
Details: 48 h
Procedure, shortened: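 In 1536-well plates, 5 μl of leukemia cells were seeded per well: 500 cells/well for NOMO1 or SEM and 1000 cells/well for P12-Ichikawa. Each line had first been adapted for at least four passages in each medium. Library compounds in DMSO were pin-dosed at 11 threefold concentrations between 47 μM and 0.79 nM, and CellTiter-Glo One luminescence was read after 48 h at 37°C. Viability is a per-plate percentage relative to DMSO wells, with cell-free wells as background.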

[1] = HPLM + 10% dialyzed FBS, 0.000781 µM
[2] = HPLM + 10% dialyzed FBS, 0.00234 µM
[3] = HPLM + 10% dialyzed FBS, 0.00702 µM
[4] = HPLM + 10% dialyzed FBS, 0.0211 µM
[5] = HPLM + 10% dialyzed FBS, 0.0632 µM
[6] = HPLM + 10% dialyzed FBS, 0.19 µM
[7] = HPLM + 10% dialyzed FBS, 0.569 µM
[8] = HPLM + 10% dialyzed FBS, 1.71 µM
[9] = HPLM + 10% dialyzed FBS, 5.12 µM
[10] = HPLM + 10% dialyzed FBS, 15.4 µM
[11] = HPLM + 10% dialyzed FBS, 46.1 µM
[12] = RPMI 5 mM glucose + 10% FBS, 0.000781 µM
[13] = RPMI 5 mM glucose + 10% FBS, 0.00234 µM
[14] = RPMI 5 mM glucose + 10% FBS, 0.00702 µM
[15] = RPMI 5 mM glucose + 10% FBS, 0.0211 µM
[16] = RPMI 5 mM glucose + 10% FBS, 0.0632 µM
[17] = RPMI 5 mM glucose + 10% FBS, 0.19 µM
[18] = RPMI 5 mM glucose + 10% FBS, 0.569 µM
[19] = RPMI 5 mM glucose + 10% FBS, 1.71 µM
[20] = RPMI 5 mM glucose + 10% FBS, 5.12 µM
[21] = RPMI 5 mM glucose + 10% FBS, 15.4 µM
[22] = RPMI 5 mM glucose + 10% FBS, 46.1 µM
[23] = RPMI 5 mM glucose + 10% dialyzed FBS, 0.000781 µM
[24] = RPMI 5 mM glucose + 10% dialyzed FBS, 0.00234 µM
[25] = RPMI 5 mM glucose + 10% dialyzed FBS, 0.00702 µM
[26] = RPMI 5 mM glucose + 10% dialyzed FBS, 0.0211 µM
[27] = RPMI 5 mM glucose + 10% dialyzed FBS, 0.0632 µM
[28] = RPMI 5 mM glucose + 10% dialyzed FBS, 0.19 µM
[29] = RPMI 5 mM glucose + 10% dialyzed FBS, 0.569 µM
[30] = RPMI 5 mM glucose + 10% dialyzed FBS, 1.71 µM
[31] = RPMI 5 mM glucose + 10% dialyzed FBS, 5.12 µM
[32] = RPMI 5 mM glucose + 10% dialyzed FBS, 15.4 µM
[33] = RPMI 5 mM glucose + 10% dialyzed FBS, 46.1 µM

Row | Compound | cell viability [1] [%] | cell viability [2] [%] | cell viability [3] [%] | cell viability [4] [%] | cell viability [5] [%] | cell viability [6] [%] | cell viability [7] [%] | cell viability [8] [%] | cell viability [9] [%] | cell viability [10] [%] | cell viability [11] [%] | cell viability [12] [%] | cell viability [13] [%] | cell viability [14] [%] | cell viability [15] [%] | cell viability [16] [%] | cell viability [17] [%] | cell viability [18] [%] | cell viability [19] [%] | cell viability [20] [%] | cell viability [21] [%] | cell viability [22] [%] | cell viability [23] [%] | cell viability [24] [%] | cell viability [25] [%] | cell viability [26] [%] | cell viability [27] [%] | cell viability [28] [%] | cell viability [29] [%] | cell viability [30] [%] | cell viability [31] [%] | cell viability [32] [%] | cell viability [33] [%]
1 | OC[C@H]1O[C@H]([C@H](O)[C@@H]1O)N2\C=C/C(=O)NC2=O | 107 | 107 | 107 | 115 | 123 | 124 | 122 | 103 | 115 | 92.7 | 90.7 | 96.8 | 105 | 102 | 102 | 107 | 91.9 | 114 | 78.3 | 93.2 | 78.3 | 86.1 | 101 | 110 | 103 | 106 | 92.8 | 117 | 108 | 91 | 105 | 94.3 | 88.3
2 | NC\1=N\C(=O)N(\C=C1)[C@@H]2O[C@H](CO)[C@@H](O)[C@@H]2O | 23.7 | 26.1 | 17.2 | 15.7 | 13.3 | 11 | 10.9 | 8.22 | 7.91 | 7.2 | 3.82 | 37.4 | 37.7 | 23.5 | 21.1 | 11.4 | 12.1 | 10.4 | 8.65 | 7.25 | 6.17 | 1.99 | 16.3 | 15.2 | 14.2 | 8.59 | 7.4 | 7.91 | 6.93 | 4.74 | 3.6 | 3.65 | 1.52
3 | CN[C@H]1CCC2=CC(=C(OC)C(=C2C/3=C/C=C(OC)\C(=O)/C=C13)OC)OC | 108 | 102 | 64.8 | 23 | 24.1 | 28.6 | 23.3 | 18.4 | 13.4 | 12 | 4.23 | 123 | 122 | 85 | 16.8 | 20.8 | 21.6 | 18 | 14.3 | 9.18 | 7.14 | 2.84 | 97.1 | 88.9 | 62.8 | 17.8 | 21.4 | 23.9 | 20.4 | 12.6 | 9.12 | 7.84 | 3.33
4 | CC(C)N[C@@H]1CCn2c(=O)[nH]c3cccc(c32)[C@H]1O | 107 | 119 | 101 | 104 | 112 | 108 | 120 | 112 | 122 | 122 | 100 |  |  |  |  |  |  |  |  |  |  |  | 102 | 112 | 113 | 122 | 125 | 123 | 107 | 117 | 101 | 125 | 102
5 | Clc1ccc(-c2nc3sccn3c2/C=N/OCc2ccc(Cl)c(Cl)c2)cc1 | 127 | 122 | 101 | 119 | 124 | 111 | 115 | 88.5 | 100 | 101 | 117 |  |  |  |  |  |  |  |  |  |  |  | 131 | 122 | 111 | 137 | 120 | 134 | 135 | 104 | 113 | 110 | 115
6 | Cc1onc(-c2ccccc2Cl)c1C(=O)N[C@@H]1C(=O)N2[C@@H]1SC(C)(C)[C@@H]2C(=O)[O-] | 82.3 | 77.1 | 89.4 | 97.7 | 72 | 88.2 | 83.5 | 81.7 | 80.2 | 84.8 | 90 | 117 | 110 | 117 | 109 | 101 | 102 | 83.8 | 116 | 110 | 99.4 | 85.7 | 102 | 110 | 119 | 115 | 107 | 115 | 96.3 | 113 | 99.9 | 104 | 108
7 | C[C@H]1COC2=C3N1\C=C(C(O)=O)/C(=O)C3=CC(=C2N4CCN(C)CC4)F | 102 | 117 | 117 | 108 | 106 | 110 | 92.9 | 68.7 | 68.2 | 65.4 | 52.7 | 105 | 115 | 102 | 115 | 90.6 | 81.4 | 94.7 | 73.4 | 63.6 | 58.6 | 31.9 | 90 | 109 | 112 | 99.1 | 90.2 | 96.4 | 88.7 | 64.1 | 76.9 | 70.4 | 69.4
8 | CN[C@@H]1[C@@H](O)[C@@H](O[C@@H]2[C@@H](O)[C@H](O[C@H]3O[C@H](CN)[C@@H](O)[C@H](O)[C@H]3O)[C@@H](N)C[C@H]2NC(=O)[C@@H](O)CN)OC[C@]1(C)O | 116 | 100 | 108 | 107 | 91.9 | 105 | 105 | 98.9 | 98 | 102 | 97.1 | 118 | 116 | 125 | 129 | 129 | 111 | 123 | 111 | 111 | 120 | 124 | 121 | 124 | 118 | 125 | 136 | 115 | 135 | 106 | 127 | 129 | 101
9 | COc1cc(OC2CCN(C)CC2)ccc1Nc1ncc2c(n1)n(C1CCCC1)c(=O)n2C | 63.8 | 87.5 | 78.2 | 69.4 | 77.3 | 99 | 97.3 | 64.7 | 59 | 25.6 | 2.44 | 87.4 | 80.4 | 79.3 | 81.1 | 99 | 90.1 | 83.2 | 67.4 | 76.1 | 20.7 | 2.73 | 74.2 | 88.5 | 71.9 | 75.4 | 78.3 | 96.1 | 84.4 | 55.4 | 67.7 | 26.6 | 2.25
10 | CC1=C(C)C(=O)C(C(CCCCCC(=O)O)c2ccccc2)=C(C)C1=O (stereo not given) | 63.6 | 70.7 | 56.2 | 69.2 | 65.6 | 78.1 | 71.6 | 64.6 | 59.7 | 44.7 | 41 | 77.4 | 92 | 73.4 | 79.9 | 75.1 | 77.4 | 59 | 57.3 | 35.1 | 26.7 | 31.9 | 54.8 | 74.5 | 57.1 | 69.9 | 75.2 | 97.2 | 58.6 | 76.6 | 46.5 | 48.6 | 24.9
11 | COc1ccc(-c2ccc3ncc4c(c3c2)n(-c2ccc(N3CCNCC3)c(C(F)(F)F)c2)c(=O)n4C)cn1 | 72.5 | 65.5 | 54.5 | 44.2 | 37.2 | 31.8 | 31.2 | 4.63 | 4.31 | 3.49 | 2.31 | 95.8 | 77.7 | 60.3 | 55.9 | 45.1 | 23.6 | 21.5 | 5.49 | 5.48 | 3.64 | 2.49 | 70 | 73.5 | 54.5 | 46.5 | 46 | 25.1 | 18.4 | 5.55 | 5.1 | 3.87 | 2.59
12 | N[S+]([O-])(=O)C1=C(Cl)C=C2\N=C/N[S+]([O-])(=O)C2=C1 | 91.1 | 96.5 | 111 | 99 | 91.2 | 59.6 | 123 | 105 | 114 | 148 | 122 | 101 | 104 | 94.3 | 78.1 | 92.5 | 45.3 | 122 | 119 | 104 | 107 | 123 | 109 | 98.7 | 103 | 80.2 | 101 | 56.3 | 134 | 109 | 109 | 123 | 133
13 | Cc1ccccc1C(=O)c1ccc(Nc2ccc(Br)cc2N)cc1Cl |  |  |  |  |  |  |  |  |  |  |  | 96 | 106 | 97.7 | 17.3 | 109 | 123 | 112 | 107 | 106 | 83.2 | 18.2 | 117 | 121 | 123 | 21.4 | 112 | 102 | 116 | 110 | 122 | 86.3 | 21.4
14 | C[C@](O)(CS(=O)(=O)c1ccc(F)cc1)C(=O)Nc1ccc(C#N)c(C(F)(F)F)c1 | 93.9 | 108 | 104 | 89.4 | 116 | 112 | 114 | 116 | 105 | 109 | 93.4 | 81.3 | 101 | 99.7 | 74.3 | 88.6 | 97.2 | 102 | 88.4 | 93 | 91 | 75.3 | 105 | 113 | 116 | 73.4 | 119 | 111 | 132 | 122 | 96.1 | 97.5 | 72.7
15 | C[C@@H](Oc1cc(-c2cnn(C3CCNCC3)c2)cnc1N)c1c(Cl)ccc(F)c1Cl | 105 | 121 | 123 | 124 | 121 | 114 | 111 | 110 | 61.6 | 35.1 | 23.5 | 81.4 | 78.5 | 85.6 | 83.6 | 82.5 | 71.3 | 83.4 | 77.3 | 58.4 | 29.5 | 13.6 | 112 | 124 | 114 | 114 | 97.1 | 113 | 120 | 116 | 91.5 | 33.3 | 28.3
16 | CC(C)c1nc(CN(C)C(=O)N[C@H](C(=O)N[C@@H](Cc2ccccc2)C[C@H](O)[C@H](Cc2ccccc2)NC(=O)OCc2cncs2)C(C)C)cs1 | 84.8 | 90.5 | 101 | 87.5 | 96.2 | 91.6 | 85 | 85.1 | 81.5 | 62.6 | 74.4 | 94.9 | 103 | 110 | 103 | 90.7 | 89.7 | 84.8 | 88.8 | 87.3 | 80.1 | 87.5 | 104 | 113 | 98.4 | 85 | 106 | 86.1 | 94.8 | 105 | 92.4 | 88.1 | 99.8
